In assay [1] the test system is murine leukaemia P 388/ADR 10. Kind of assay: Evaluation of the increase in cytotoxicity of adriamycin on the line P 388/ADR-10 in vitro (reversion factor). The assay is classed as cell-based. Particulars: adriamycin, P 388/ADR-10, 48 h, TOX = toxic. The protocol:
In this study, the cytotoxicity of adriamycin was measured in the absence and in the presence of the reversing compound.
The compounds tested for their capacity to reverse MDR are added at the same time as the cytotoxic agent. The cells are then incubated for 48 hours.

In another assay the test system is line DC-3F/AD. Nature of the assay: Flow cytometry, increase in fluorescence of ADR on the line DC-3F/AD. Particulars: ADR 50 μM, 5 h. The assay is classed as cell-based, Chinese Hamster. The method, then:
(§1) By measuring that fluorescence it is possible to obtain a relative measurement of the intracellular concentration of ADR.
(§2) […] After 5 hours' incubation, the intracellular uptake of adriamycin was evaluated by FCM.
(§3) The analysis of each of the samples was carried out on a total of 10,000 cells at a speed of 1000 cells/sec.
(§4) The results were presented in the form of linear histograms of the intracellular ADR fluorescence.
(§5) Expression of the Results
(§6) For each of the histograms, the channel mean fluorescence was determined by the apparatus information system. For all experiments:
(§7) A negative control (cells without ADR) fixed the autofluorescence threshold.
(§8) A positive control (cells with ADR) determined the MEAN value=MN1.
(§9) The "test" tubes (cells with ADR and with compound) were used to determine, for each of the compounds and at each of the concentrations, the MEAN values=MN2.
(§10) The results are expressed in the form of variations from the mean fluorescence obtained for each of the "test" tubes (MN2) in relation to the mean fluorescence obtained with the […] (MNl) : VAR-MEAN=MN2 -MN1. The parameter expressed is thus the increase in the fluorescence of adriamycin in the presence of the tested compounds.
Background: Flow cytometry measures light scatter and fluorescence of single cells or particles in a stream.

The test system of another assay is line P 388/ADR 10. Kind of assay: Flow cytometry, increase in fluorescence of ADR on the line P 388/ADR 10. The assay is classed as cell-based, murine. Particulars: ADR 50 μM, 5 h. The protocol: as §1, §2, §3, §4, §5, §6, §7, §8, §9, §10
Assay [2] relates to Chinese Hamster Pulmonary Line DC-3F/AD. Kind of assay: Increase in the cytotoxicity of actinomycin D on the Chinese hamster pulmonary line DC-3F/AD.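 Note: DC-3F/AD is an extremely resistant cell line whose resistance factor exceeds 10,000.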 The assay is classed as cell-based. Particulars: 4 days.
Source text: The cytotoxic agent used was actinomycin D.
Line DC-3F/AD is an extremely resistant line. Its resistance factor is higher than 10,000.

For the compound `CCCCc1oc2ccccc2c1C(=O)c1cc(I)c(OCCN(CC)CC)c(I)c1` [AMIODARONE, reference compound], the “Reversion Factor (RF)” value is given as 37.7 in assay [1] (compound 2.5 μM); 104.7 in assay [1] (compound 5 μM); “TOX” in assay [1] (compound 10 μM); 298 in assay [2] (compound 5 μM); 388 in assay [2] (compound 10 μM); “TOX” in assay [2] (compound 20 μM). Besides, the “Increase in fluorescence of ADR (VAR-MEAN = MN2 - MN1)” value (“Increase in fluorescence of ADR” for short) with line DC-3F/AD (compound 2 μM) is reported as 8.80; with line DC-3F/AD (compound 5 μM), 16.65; in the assay on line DC-3F/AD (compound 10 μM), 21.55; with line DC-3F/AD (compound 20 μM), 26.35; in the assay on line P 388/ADR 10 (compound 2 μM) it was 33.40; in the assay with line P 388/ADR 10 (compound 5 μM), 65.25. Besides, the “Increase in fluorescence of ADR” value in the assay on line P 388/ADR 10 (compound 10 μM) was 76.33; in the assay with line P 388/ADR 10 (compound 20 μM), 95.85.
For `C=CCNc1nc(NCC=C)nc(NC2CCN(CC(c3ccccc3)c3ccccc3)CC2)n1` [Example 3, 4-[4,6-bis(allylamino)-2-s-triazinyl]amino-1-(2,2diphenylethyl)piperidine], the “Reversion Factor (RF)” value was determined as 39 in assay [1] (compound 2.5 μM); 70 in assay [1] (compound 5 μM); 134.8 in assay [1] (compound 10 μM); 38 in assay [2] (compound 2.5 μM); 104 in assay [2] (compound 5 μM); 240 in assay [2] (compound 10 μM). Also, the “Increase in fluorescence of ADR” value in the assay with line DC-3F/AD (compound 2 μM) was 8.0; with line DC-3F/AD (compound 5 μM), 19.9; with line DC-3F/AD (compound 10 μM), 21.6; in the assay with line DC-3F/AD (compound 20 μM) it was 19.3; in the assay with line P 388/ADR 10 (compound 2 μM), 29.9; in the assay on line P 388/ADR 10 (compound 5 μM), 46.2. In addition, the “Increase in fluorescence of ADR” value with line P 388/ADR 10 (compound 10 μM) is recorded as 66.0; with line P 388/ADR 10 (compound 20 μM), 73.1.
Regarding `C=CCNc1nc(NCC=C)nc(N2CCC(N(C)CC(c3ccccc3)c3ccccc3)CC2)n1` [Example 4, 1-[4,6-bis(allylamino)-2-s-triazinyl)-4-[N-(2,2-di-phenylethyl)-N-methylamino]piperidine], the “Reversion Factor (RF)” value in assay [1] (compound 2.5 μM) came to 34.7; in assay [1] (compound 5 μM), 32.3; in assay [1] (compound 10 μM) it was 171.1; in assay [2] (compound 5 μM), 218; in assay [2] (compound 10 μM) it was 1256. The “Increase in fluorescence of ADR” value with line DC-3F/AD (compound 2 μM) was 12.3; in the assay on line DC-3F/AD (compound 5 μM), 24.1; in the assay with line DC-3F/AD (compound 10 μM), 41.9; in the assay on line DC-3F/AD (compound 20 μM) it was 49.0.
Take `C=CCNc1nc(NCC=C)nc(N2CCC(NCC(c3ccccc3)c3ccccc3)CC2)n1` [Example 5, 1-[4,6-bis(allylamino)-2-s-triazinyl]-4-(2,2-diphenylethylamino)piperidine]: the “Reversion Factor (RF)” value is recorded as 100 in assay [1] (compound 2.5 μM); 189 in assay [1] (compound 5 μM); 277.4 in assay [1] (compound 10 μM); 658 in assay [2] (compound 5 μM); 1504 in assay [2] (compound 10 μM); “TOX” in assay [2] (compound 20 μM). In addition, the “Increase in fluorescence of ADR” value was determined as 15.5 with line DC-3F/AD (compound 2 μM); 31.3 with line DC-3F/AD (compound 5 μM); 34.65 in the assay on line DC-3F/AD (compound 10 μM); 37.9 in the assay with line DC-3F/AD (compound 20 μM); 45.25 in the assay with line P 388/ADR 10 (compound 2 μM); 60.7 in the assay with line P 388/ADR 10 (compound 5 μM). In addition, the “Increase in fluorescence of ADR” value with line P 388/ADR 10 (compound 10 μM) worked out at 79.47; with line P 388/ADR 10 (compound 20 μM), 76.25.
As for `C=CCNc1nc(NCC=C)nc(N2CCC(NCCC(c3ccccc3)c3ccccc3)CC2)n1` [Example 6, 1-[4,6-bis(allylamino)-2-s-triazinyl]-4-(3,3-diphenylpropylamino)-piperidine], the “Reversion Factor (RF)” value was 54.4 in assay [1] (compound 2.5 μM); “TOX” in assay [1] (compound 5 μM); “TOX” in assay [1] (compound 10 μM); under 16.5 in assay [2] (compound 2.5 μM); 220 in assay [2] (compound 5 μM); “TOX” in assay [2] (compound 10 μM). The “Reversion Factor (RF)” value in assay [2] (compound 20 μM) was “TOX”. Further, the “Increase in fluorescence of ADR” value is 3.9 in the assay with line DC-3F/AD (compound 2 μM); 21.5 with line DC-3F/AD (compound 5 μM); 29.75 with line DC-3F/AD (compound 10 μM); “TOX” in the assay on line DC-3F/AD (compound 20 μM); 32.9 in the assay with line P 388/ADR 10 (compound 2 μM); 60.1 in the assay with line P 388/ADR 10 (compound 5 μM). The “Increase in fluorescence of ADR” value in the assay with line P 388/ADR 10 (compound 10 μM) is 55.8; in the assay with line P 388/ADR 10 (compound 20 μM), “TOX”.
In the case of `C=CCNc1nc(NCCC)nc(N2CCC(NCC(c3ccccc3)c3ccccc3)CC2)n1` [Example 7, 1-(4-propylamino-6-allylamino-2-s-triazinyl)-4-(2,2-diphenylethylamino)piperidine], the “Reversion Factor (RF)” value in assay [1] (compound 2.5 μM) is 102.8; in assay [1] (compound 5 μM) it was 135.6; in assay [1] (compound 10 μM), “TOX”; in assay [2] (compound 5 μM), 992; in assay [2] (compound 10 μM), 2339. The “Increase in fluorescence of ADR” value in the assay on line DC-3F/AD (compound 2 μM) came to 14.47; in the assay with line DC-3F/AD (compound 5 μM), 26.0; in the assay on line DC-3F/AD (compound 10 μM), 34.17; in the assay with line DC-3F/AD (compound 20 μM), 36.63; in the assay on line P 388/ADR 10 (compound 2 μM) it was 48.75; in the assay on line P 388/ADR 10 (compound 5 μM), 72.6. Further, the “Increase in fluorescence of ADR” value was found to be 80.9 in the assay with line P 388/ADR 10 (compound 10 μM) and 87.3 with line P 388/ADR 10 (compound 20 μM).
Turning to `C=CCNc1nc(NCCC)nc(N2CCC(NCCC(c3ccccc3)c3ccccc3)CC2)n1` [Example 8, 1-(4-propylamino-6-allylamino-2-s-triazinyl)-4-(3,3diphenylpropylamino)piperidine], the “Reversion Factor (RF)” value in assay [1] (compound 2.5 μM) was 75.9; in assay [1] (compound 5 μM), “TOX”; in assay [1] (compound 10 μM) it was “TOX”; in assay [2] (compound 2.5 μM), 16.5; in assay [2] (compound 5 μM), “TOX”; in assay [2] (compound 10 μM) it was “TOX”. Besides, the “Reversion Factor (RF)” value in assay [2] (compound 20 μM) is “TOX”. Besides, the “Increase in fluorescence of ADR” value is 4.5 in the assay with line DC-3F/AD (compound 2 μM); 17.85 in the assay with line DC-3F/AD (compound 5 μM); 27.15 with line DC-3F/AD (compound 10 μM); “TOX” with line DC-3F/AD (compound 20 μM); 38.9 in the assay with line P 388/ADR 10 (compound 2 μM); 60.1 in the assay with line P 388/ADR 10 (compound 5 μM). The “Increase in fluorescence of ADR” value in the assay with line P 388/ADR 10 (compound 10 μM) and in the assay on line P 388/ADR 10 (compound 20 μM) was “TOX” in each case.
Turning to `C=CCNc1nc(NCCC)nc(NC2CCN(CC(c3ccccc3)c3ccccc3)CC2)n1` [Example 11, 4-(4-allylamino-6-propylamino-2-s-triazinylamino)-1-(2,2-diphenylethyl)piperidine], the “Reversion Factor (RF)” value in assay [1] (compound 2.5 μM) is 87; in assay [1] (compound 5 μM) it was 65.2; in assay [1] (compound 10 μM) it was “TOX”; in assay [2] (compound 5 μM), 281; in assay [2] (compound 10 μM), 926. Besides, the “Increase in fluorescence of ADR” value in the assay with line DC-3F/AD (compound 2 μM) was 12.6; in the assay on line DC-3F/AD (compound 5 μM), 18.9; with line DC-3F/AD (compound 10 μM), 29.9; with line DC-3F/AD (compound 20 μM), 40.5.
Consider `C=CCNc1nc(NCC=C)nc(N2CCC(NCCC(c3ccc(OC)c(OC)c3)c3ccc(OC)c(OC)c3)CC2)n1` [Example 12, 1-[4,6-bis(allylamino)-2-s-triazinyl]-4-[3,3-bis(3,4-dimethoxyphenyl)propylamino]piperidine], for which the “Reversion Factor (RF)” value in assay [1] (compound 2.5 μM) is given as 1.4; in assay [1] (compound 5 μM), 8; in assay [1] (compound 10 μM), “TOX”; in assay [2] (compound 5 μM), under 16.5; in assay [2] (compound 10 μM) it was under 16.5. Besides, the “Increase in fluorescence of ADR” value was determined as 6.1 with line DC-3F/AD (compound 2 μM), 3.8 with line DC-3F/AD (compound 5 μM), 5.5 in the assay on line DC-3F/AD (compound 10 μM) and 9.6 in the assay with line DC-3F/AD (compound 20 μM).

The values are drawn from US5225411A, “Disubstituted polymethyleneimines” (priority 1990, dated 1993).
